# Earlier results as cited in patent publication US20050255458A1, “Drug discovery assays based on the biology of chronic disease” (priority 2002, published 2005).
# Where two headings read alike, the source gives them in different places.
# Columns and labels:
# HSV-1 = details: cited from earlier work
# TF promoter = details: cited from earlier work
# tissue factor (TF) gene = details: cited from earlier work
# sebocytes = details: 10^−6 M, cited from earlier work
# [1] = test system: hair follicles (onset of anagen); details: topical 10 nmol twice weekly, female CD-1 mice; cited from earlier work
# ERK [2] = details: cited from earlier work
# AR gene = details: cited from earlier work
# Elk-1 = details: Peterziel 1999; cited from earlier work
# [3] = test system: AU565 breast carcinoma cells; details: cited from earlier work
# [4] = test system: ML-1 human myeloblastic leukemic cells; details: cited from earlier work
# endogenous AR gene = details: 10^−8 M, cited from earlier work
# DC = details: inhaled; cited from earlier work
# NF-κB [5] = details: cited from earlier work
# GABP = details: Ojuka 2003; cited from earlier work
# TF [6] = details: cited from earlier work
# [7] = test system: hamsters on a high-cholesterol diet; details: 8 weeks, cited from earlier work
# TF [8] = details: cited from earlier work; remark: listed apart in the source
# ACE = molecular target: T1, ACE (Mesocricetus auratus, UniProt Q50JE5); details: cited from earlier work
# T1 construct: from tissue; host or cells: whole animal, in vivo (hamster)
# T1 sequence (Q50JE5 36-1314): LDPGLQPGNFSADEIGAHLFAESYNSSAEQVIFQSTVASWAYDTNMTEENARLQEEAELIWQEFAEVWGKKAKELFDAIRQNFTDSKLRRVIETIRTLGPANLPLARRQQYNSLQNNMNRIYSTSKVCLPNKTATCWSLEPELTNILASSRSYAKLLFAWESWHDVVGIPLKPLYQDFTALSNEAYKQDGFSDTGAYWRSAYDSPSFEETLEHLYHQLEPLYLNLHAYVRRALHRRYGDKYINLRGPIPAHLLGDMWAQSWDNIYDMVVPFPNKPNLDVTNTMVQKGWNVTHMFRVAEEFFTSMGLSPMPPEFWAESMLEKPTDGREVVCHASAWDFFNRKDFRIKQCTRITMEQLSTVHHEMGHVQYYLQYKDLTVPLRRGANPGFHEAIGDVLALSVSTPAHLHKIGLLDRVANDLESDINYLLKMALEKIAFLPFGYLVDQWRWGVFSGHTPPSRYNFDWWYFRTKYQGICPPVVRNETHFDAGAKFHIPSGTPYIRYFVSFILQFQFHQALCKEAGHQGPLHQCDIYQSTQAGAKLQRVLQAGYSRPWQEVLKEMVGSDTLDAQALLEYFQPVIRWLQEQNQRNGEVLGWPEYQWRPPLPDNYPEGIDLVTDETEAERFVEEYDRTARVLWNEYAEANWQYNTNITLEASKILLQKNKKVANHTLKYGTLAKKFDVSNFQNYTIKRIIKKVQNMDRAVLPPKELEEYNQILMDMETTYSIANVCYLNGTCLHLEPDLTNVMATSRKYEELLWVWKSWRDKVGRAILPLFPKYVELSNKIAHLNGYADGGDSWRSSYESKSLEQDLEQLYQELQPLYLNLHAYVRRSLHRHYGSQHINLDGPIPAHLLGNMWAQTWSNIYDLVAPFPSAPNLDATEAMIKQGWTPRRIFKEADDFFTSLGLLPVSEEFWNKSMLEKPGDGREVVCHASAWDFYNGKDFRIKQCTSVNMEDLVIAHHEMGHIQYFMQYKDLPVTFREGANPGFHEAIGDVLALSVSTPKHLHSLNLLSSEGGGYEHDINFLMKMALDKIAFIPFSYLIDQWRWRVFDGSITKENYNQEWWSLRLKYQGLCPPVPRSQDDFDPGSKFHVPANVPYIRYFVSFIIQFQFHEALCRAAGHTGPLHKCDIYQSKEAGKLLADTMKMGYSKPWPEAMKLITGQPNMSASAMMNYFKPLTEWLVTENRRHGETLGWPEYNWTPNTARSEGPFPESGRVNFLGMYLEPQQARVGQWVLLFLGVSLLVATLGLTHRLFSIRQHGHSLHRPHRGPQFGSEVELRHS
# ERK [9] = details: cited from earlier work; remark: listed apart in the source
# [10] = test system: abdominal subcutaneous adipocytes; details: obese vs non-obese (Hellstrom 2000); cited from earlier work
# [11] = cited from earlier work
# NF-κB [12] = details: various cells and tissues; cited from earlier work
# MDAY-D2 tumor = details: 500 μg daily s.c., cited from earlier work
# [13] = drinking water, 4 months, vs untreated obese (fa/fa); cited from earlier work
structure (smiles),measurement,setting,value
"Nc1nc2c(ncn2COCCO)c(=O)[nH]1 [ACV, aciclovir]",copy number of latent HSV-1 genomes,"HSV-1; 7 days from first day post infection, day 44, relative to IgG",decreased the copy number of latent HSV-1 genomes
"CC1=C(/C=C/C(C)=C/C=C/C(C)=C/C(=O)O)C(C)(C)CCC1 [ATRA, all-trans retinoic acid]",LPS induced increase in LUC transcription,TF promoter; 30-minute ATRA before 5-hour LPS,no decrease
same,LUC activity,"TF promoter; ATRA 10^−5 mol/L, 30 minutes, vs untreated",no decrease in LUC activity
same,TF mRNA,"tissue factor (TF) gene; 10^−5 mol/L, 30 minutes",decrease in TF mRNA
same,"binding of c-Fos/c-Jun, c-Rel/p65 and Sp1 to their sites","tissue factor (TF) gene; 10^−5 mol/L, 30 minutes",no change in binding
same,rate of TF transcription (run-on),"tissue factor (TF) gene; LPS 10 μg/ml 1 hour, ATRA 10^−5 mol/L 30 minutes before LPS",decreased TF transcription
"C[C@]12CCC(=O)C[C@@H]1CC[C@@H]1[C@@H]2CC[C@]2(C)[C@@H](O)CC[C@@H]12 [DHT, Dihydrotestosterone]",decrease in DNA synthesis (^3H-thymidine uptake),sebocytes; vs untreated,40%
same,sebocyte differentiation (lipid accumulation),sebocytes; statistically insignificant,small increase
same,delay in hair regrowth,[1],3-4 week
same,ERK phosphorylation,ERK [2]; LNCaP or PC-3 cells (Guo 2000),no increase in ERK phosphorylation
same,Effect on [ERK^phos],ERK [2]; LNCaP,↑[ERK^phos]
same,Effect on [ERK^phos],ERK [2]; primary genital skin fibroblasts,↑[ERK^phos]
same,Effect on [ERK^phos],ERK [2]; primary prostatic stormal cells,↑[ERK^phos]
same,AR mRNA half life,AR gene; LNCaP,Increased mRNA half life
same,AR transcription in run-on assays,AR gene; LNCaP,Decreased transcription
same,Effect on [mRNAAR],AR gene; LNCaP,↓[mRNAAR]
same,AR mRNA half life,AR gene; MDA453,Decreased mRNA half life
same,AR transcription in run-on assays,AR gene; MDA453,No change in run-on
same,Effect on [mRNAAR],AR gene; MDA453,↓[mRNAAR]
same,Elk-1 transcription activity,Elk-1,increase in Elk-1 transcription activity
"CC(=O)OCC(CCn1cnc2cnc(N)nc21)COC(C)=O [FCV, famciclovir]",establishment of viral latency,HSV-1; 9-10 days treatment early in infection,effective in limiting the establishment of viral latency
COc1cccc(-c2cc(=O)c3ccccc3o2)c1N [PD98059],effect on HRGβ1-induced cell growth arrest,[3]; 0-10 μM PD98059,dose-dependently reversed
same,cell differentiation,"[3]; HRGβ1 alone, PD98059 as pretreatment",dose-dependently inhibited
same,ML-1 proliferation with TPA,[4]; 10 μM PD98059 with 0.3 ng/ml TPA,continued to proliferate
same,decrease in TPA-stimulated ERK2 activity,[4]; 1 h,2 fold
same,decrease in TPA-stimulated ERK2 activity,[4]; 3 h,10 fold
"C[C@]1(O)CC[C@H]2[C@@H]3CCC4=CC(=O)CCC4=C3C=C[C@@]21C [R1881, methyltrienolone]",transcription of endogenous AR gene,endogenous AR gene; 8 hours,85 % of control
same,transcription of endogenous AR gene,endogenous AR gene; 24 hours,73 % of control
same,Effect on [ERK^phos],ERK [2]; PMC42 human breast cancer cells,↑[ERK^phos]
same,Effect on [mRNAAR],AR gene; LNCaP,↓[mRNAAR]
CCC(=O)OCC(=O)[C@@]1(OC(=O)CC)[C@@H](C)C[C@H]2[C@@H]3CCC4=CC(=O)C=C[C@]4(C)[C@@]3(Cl)[C@@H](O)C[C@@]21C [beclomethasone dipropionate],number of DC in asthma,DC,decreased the excessive number of DCs in asthma
same,NF-κB activation,NF-κB [5],decreases NF-κB activation
Cn1c(=O)c2c(ncn2C)n(C)c1=O [caffeine],GABP binding to the N-box,GABP,increase of GABP binding
C[C@H](CS)C(=O)N1CCC[C@H]1C(=O)O [captopril],level of TF antigen and mRNA in the cultured cells,TF [6],decreased the level of TF antigen and mRNA
same,cell size of macrophage derived foam cells,[7],did not change the cell size
same,decrease of fatty streak area,[7],35%
same,heart rate,[7],348±6 beats/min
same,mean arterial pressure,[7],110±5 mm Hg
same,subendothelial number of macrophage derived foam cells in the aortic arch,[7],108±10 cells/mm^2
same,plasma total cholesterol,"[7]; pravastatin 34, captopril 100 mg/kg/day",did not change plasma lipids
same,nuclear translocation of c-Rel/p65 induced by endotoxin,TF [8]; 20 μg/mL,almost completely inhibited
same,TF activity,TF [8]; dose-dependent,decreased TF activity
same,decrease in HDL,"ACE; 100 mg/kg/day, 6 weeks, vs week 3 and 4",24%
same,number of subendothelial macrophage derived foam cells,"ACE; 100 mg/kg/day, after 6 weeks of treatment",52±9 cell/mm^2
same,area of extracellular lipid particles,ACE; after 6 weeks of treatment,"157±36 μm2×1,000"
same,area of fatty streak,ACE; after 6 weeks of treatment,"55±12 μm2×1,000"
same,average size of a foam cell,ACE; after 6 weeks of treatment,89±5 μm^2
O=C1CN(/N=C/c2ccc(-c3ccc([N+](=O)[O-])cc3)o2)C(O)=N1 [dantrolene],GABP binding to the N-box,GABP,prevented the effect
"CCCC(=O)Nc1ncnc2c1ncn2[C@@H]1O[C@@H]2COP(=O)(O)O[C@H]2[C@H]1OC(=O)CCC [dibutyryl cAMP, dibutyryl cyclic AMP]",ERK activation,ERK [9]; adipocytes,activated ERK
same,decrease in maximum induced glycerol release,[10],50%
"Nc1nc(O)c2ncn(COC(CO)CO)c2n1 [ganciclovir, Ganciclovir]",actuarial incidence of TxCAD,"[11]; 28 days prophylaxis, follow-up 4.7±1.3 years",43±8%
same,patients who developed TxCAD,"[11]; CMV seronegative recipients, 14 patients",28%
CC(C)NCC(O)c1ccc(O)c(O)c1 (stereo not drawn) [isoprenaline],ERK activation,ERK [9]; CHO/K1 cells expressing the human β3AR,activated ERK
same,ERK activation,ERK [9]; adipocytes,activated ERK
same,decrease in maximum induced glycerol release,[10],50%
CC[C@H](C)C(=O)O[C@H]1CCC=C2C=C[C@H](C)[C@H](CC[C@@H]3C[C@@H](O)CC(=O)O3)[C@H]21 [mevastatin],NF-κB activation,NF-κB [12],inhibited NF-κB activation
O=C(O)C[C@H](O)C[C@H](O)/C=C/c1c(C2CC2)nc2ccccc2c1-c1ccc(F)cc1 [pitavastatin],NF-κB activation,NF-κB [12],inhibited NF-κB activation
[Na+].[Na+].[Na+].[O]=[V]([O-])([O-])[O-] [sodium orthovanadate],tumor weights,"MDAY-D2 tumor; day 14, 11 mice with tumors",0.08 to 0.47 g
same,decrease in tumor growth,MDAY-D2 tumor,more than 85%
same,decrease in body weight,[13],43%
